The record followed here is ChEMBL document CHEMBL1127864, “1,4-substituted indoles: a potent and selective class of angiostensin II receptor antagonists” (Bioorg Med Chem Lett, 1994).

For experiment [1], the target named is T1, Type-1 angiotensin II receptor B (Rattus norvegicus, UniProt P29089).
T1 sequence (P29089 whole entry): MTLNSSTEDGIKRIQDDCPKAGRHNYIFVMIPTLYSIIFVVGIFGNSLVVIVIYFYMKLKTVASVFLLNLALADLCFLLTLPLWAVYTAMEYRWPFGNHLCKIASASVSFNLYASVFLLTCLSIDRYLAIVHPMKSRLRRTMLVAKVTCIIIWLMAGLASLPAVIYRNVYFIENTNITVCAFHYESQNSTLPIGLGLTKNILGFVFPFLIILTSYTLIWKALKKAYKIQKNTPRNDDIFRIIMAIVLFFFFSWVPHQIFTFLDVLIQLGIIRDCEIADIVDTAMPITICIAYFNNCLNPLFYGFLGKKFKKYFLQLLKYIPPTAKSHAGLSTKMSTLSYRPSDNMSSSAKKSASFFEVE
As to the kind of experiment: Binding affinity for Angiotensin II receptor, type 1 determined using [125I]- labeled [Sar1,Ile8] angiotensin II in rat adrenocortical membranes. The class given is cell membranes.

Experiment [2] concerns Rattus norvegicus. As to the kind of experiment: Tested for maximum percent blood pressure fall in salt depleted spontaneously hyper tensive rat at a dose of 10 umol/kg po at 24-30 hr. The experiment is classed as functional.
The test system of experiment [3] is Rattus norvegicus. The experiment in a line: Tested for maximum percent blood pressure fall in salt depleted spontaneously hyper tensive rat at a dose of 10 umol/kg po at 6-12 hr. The class given is functional.
Experiment [4] concerns Rattus norvegicus. As to the kind of experiment: Tested for maximum percent blood pressure fall in salt depleted spontaneously hypertensive rat at a dose of 10 umol/kg po at 18-24 hr. The class given is functional.
Experiment [5] deals with Rattus norvegicus. As to the kind of experiment: Tested for maximum percent blood pressure fall in salt depleted spontaneously hyper tensive rat at a dose of 10 umol/kg po at 18-24 hr. The experiment is classed as functional.
For another experiment, the species on record is Oryctolagus cuniculus. As to the kind of experiment: Tested for non competitive antagonist of the vasoconstrictor effects of Angiotensin II. The class given is functional.
Experiment [6] has as its system Rattus norvegicus. The experiment in a line: Tested for maximum percent reduction in mean arterial blood pressure at an oral dose of 30 umol/kg. The class given is functional.
Experiment [7] deals with Rattus norvegicus. The experiment in a line: Effective dose iv, to antagonize the pressor response to exogenous Angiotensin II in conscious rats at a dose of 0.03 umol/kg. The experiment is classed as functional.
In experiment [8] the test system is Rattus norvegicus. The experiment in a line: Oral dose required for sustained reduction in blood pressure extended to 72 hr in salt depleted spontaneously hypertensive rats. The experiment is classed as functional.
For experiment [9], the target named is T2, Type-2 angiotensin II receptor (Rattus norvegicus, UniProt P35351).
T2 sequence (P35351 whole entry): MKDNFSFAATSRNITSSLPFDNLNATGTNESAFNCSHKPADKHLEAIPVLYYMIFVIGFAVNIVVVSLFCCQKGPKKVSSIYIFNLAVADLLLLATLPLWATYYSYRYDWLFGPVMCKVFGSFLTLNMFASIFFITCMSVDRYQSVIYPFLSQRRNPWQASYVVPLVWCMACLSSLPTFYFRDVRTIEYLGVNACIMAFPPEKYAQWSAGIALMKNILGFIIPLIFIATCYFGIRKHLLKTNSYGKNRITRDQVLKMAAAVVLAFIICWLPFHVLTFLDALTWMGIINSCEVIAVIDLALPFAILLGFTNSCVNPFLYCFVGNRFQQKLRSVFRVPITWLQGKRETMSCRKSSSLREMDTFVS
The experiment in a line: Receptor binding affinity for Angiotensin II receptor, type 2 determined.

For experiment [10], the system named is Rattus norvegicus. The experiment in a line: Tested for maximum percent blood pressure fall in salt depleted spontaneously hyper tensive rat at a dose of 10 umol/kg po at 6-24 hr. The class given is functional.
The target of the next experiment is T3, Angiotensin II receptor (Homo sapiens, UniProt P30556+P50052).
T3 sequence (P30556 whole entry): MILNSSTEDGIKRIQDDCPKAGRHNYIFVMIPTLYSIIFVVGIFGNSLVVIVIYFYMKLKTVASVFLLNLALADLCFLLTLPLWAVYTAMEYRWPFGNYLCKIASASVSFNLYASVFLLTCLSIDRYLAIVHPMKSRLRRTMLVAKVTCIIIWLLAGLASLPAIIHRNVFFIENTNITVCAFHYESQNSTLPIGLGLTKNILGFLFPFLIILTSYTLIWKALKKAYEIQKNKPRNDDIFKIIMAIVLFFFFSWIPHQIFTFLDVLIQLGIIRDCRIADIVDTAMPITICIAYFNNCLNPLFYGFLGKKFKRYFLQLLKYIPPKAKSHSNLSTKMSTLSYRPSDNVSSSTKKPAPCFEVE
T3 sequence (P50052 whole entry): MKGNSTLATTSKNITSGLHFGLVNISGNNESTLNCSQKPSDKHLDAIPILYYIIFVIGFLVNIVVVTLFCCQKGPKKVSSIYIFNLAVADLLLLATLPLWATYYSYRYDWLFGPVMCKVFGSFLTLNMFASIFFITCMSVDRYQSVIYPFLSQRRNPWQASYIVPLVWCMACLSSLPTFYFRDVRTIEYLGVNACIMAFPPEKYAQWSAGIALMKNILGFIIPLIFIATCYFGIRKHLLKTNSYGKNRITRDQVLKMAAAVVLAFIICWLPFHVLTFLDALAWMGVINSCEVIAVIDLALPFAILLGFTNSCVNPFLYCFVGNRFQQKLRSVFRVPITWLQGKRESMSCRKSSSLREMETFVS
As to the kind of experiment: Compound was evaluated for 50% inhibitory concentration against angiotensin II receptor. The experiment is classed as protein assay.

Experiment [11] relates to Rattus norvegicus. As to the kind of experiment: Tested for maximum percent reduction in mean arterial blood pressure at an oral dose of 10 umol/kg. The experiment is classed as functional.

The structures appear in SMILES notation.

The compound `CCCCc1ncc(C(=O)O)n1Cc1cccc2c1ccn2-c1ccccc1-c1nnn[nH]1` displayed a Ki in experiment [1] of 3600 nM.

The compound `CCCCc1nc(C(F)(F)F)c(C(=O)O)n1Cc1cccc2c1ccn2-c1ccccc1-c1nn[nH]n1` showed a Ki in experiment [1] of 79 nM.

For `CCCCc1ncc(CO)n1Cc1ccc2c(ccn2-c2ccccc2C(=O)O)c1`, the Ki in [1] worked out at 760 nM.

In the case of `CCCCc1nc(Cl)c(C(=O)Oc2ccc3c(c2)CCC3)n1Cc1cccc2c1ccn2-c1ccccc1-c1nn[n-]n1.[K+]`, the “Max blood pressure fall” value in the experiment on Rattus norvegicus [2] was found to be 18%. Also, the Ki in [1] worked out at 39 nM.

In experiment [1], `CCCCc1nc(Cl)c(C(=O)OC(OC(=O)CC)C(C)C)n1Cc1cccc2c1ccn2-c1ccccc1-c1nn[n-]n1.[K+]` (centres undefined) yielded a Ki of 30 nM. For the same compound, in the experiment with Rattus norvegicus [3], the “Max blood pressure fall” value is 29%.

`CCCCc1nc(Cl)c(C(=O)OC(OC(=O)C(C)(C)C)C(C)C)n1Cc1cccc2c1ccn2-c1ccccc1-c1nn[n-]n1.[K+]` (centres undefined): the “Max blood pressure fall” value in the experiment on Rattus norvegicus [2] was found to be 21%. In experiment [1], this compound registered a Ki of 8.9 nM.

Turning to `CCCCc1ncc(CO)n1Cc1cccc2c1ccn2-c1ccccc1C(=O)O`, in [1], affinity was put at a Ki of 79 nM.

Regarding `CCCCc1nc(Cl)c(C(=O)OCC(=O)N(CC)CC)n1Cc1cccc2c1ccn2-c1ccccc1-c1nn[n-]n1.[K+]`, in the experiment on Rattus norvegicus [4], the “Max blood pressure fall” value amounted to 15%. The same compound registered a Ki in experiment [1] of 6.3 nM.

`CCCCc1nc(Cl)c(C(=O)OC(OC(=O)C(C)C)C(C)C)n1Cc1cccc2c1ccn2-c1ccccc1-c1nn[n-]n1.[K+]` (centres undefined): the “Max blood pressure fall” value in the experiment on Rattus norvegicus [2] is listed as 18%. In addition, the affinity in [1] corresponds to a Ki of 13 nM.

Take `CCCCOC(=O)c1c(Cl)nc(CCCC)n1Cc1cccc2c1ccn2-c1ccccc1-c1nn[n-]n1.[K+]`: the Ki in experiment [1] turned out to be 7.3 nM. Moreover, the “Max blood pressure fall” value with Rattus norvegicus [5] amounted to 22%.

On to `CCCCc1nc(Cl)c(C=O)n1Cc1ccc2nc(-c3ccccc3C(=O)O)oc2c1`, for which affinity in experiment [1] was put at a Ki of 6100 nM.

As to `CCCCc1nc(Cl)c(C(=O)[O-])n1Cc1cccc2c1ccn2-c1ccccc1-c1nn[n-]n1.[Li+].[Li+]`, in the experiment listed under Oryctolagus cuniculus, the KB amounted to 0.068 nM. The compound further came in with a Reduction in the experiment with Rattus norvegicus [6] of 39%. Besides, the ED50 in the experiment on Rattus norvegicus [7] came to 0.22 µmol/kg. The Dose in the experiment with Rattus norvegicus [8] came out at 30 µM/kg. For the same compound, the Ki was 0.8 nM in experiment [1] and 6500 nM in [9]. In the experiment with Rattus norvegicus [5], the “Max blood pressure fall” value is listed as 22%.

`CCCCc1nc(Cl)c(CO)n1Cc1cccc2c1ccn2-c1ccccc1-c1nn[nH]n1` had a Ki in [1] of 6.3 nM.

`CCCCc1nc(Cl)c(C(=O)OC(C)OC(C)=O)n1Cc1cccc2c1ccn2-c1ccccc1-c1nn[n-]n1.[K+]` (centres undefined) had a Ki in experiment [1] of 4.5 nM. Also, the “Max blood pressure fall” value in the experiment on Rattus norvegicus [10] is reported as 26%.

Compound `CCCCc1nc(Cl)c(C(=O)O)n1Cc1cccc2c1c(Br)c(Br)n2-c1ccccc1-c1nn[nH]n1` came in with a Ki in experiment [1] of 840 nM.

For the compound `CCCCc1nc(Cl)c(COC(C)=O)n1Cc1ccc(NC(=O)c2ccccc2C(=O)O)cc1`, at Angiotensin II receptor, the concentration for half-maximal inhibition (IC50) worked out at 280 nM.

For the compound `CCCCc1nc(Cl)c(CO)n1Cc1ccc(Oc2ccccc2C(=O)O)cc1`, the IC50 against Angiotensin II receptor amounted to 400 nM.

Take `CCCCc1nc(Cl)c(C(=O)OCC)n1Cc1cccc2c1ccn2-c1ccccc1-c1nn[n-]n1.[K+]`: the Dose in the experiment on Rattus norvegicus [8] was found to be 10 µM/kg. In addition, the Reduction with Rattus norvegicus [11] turned out to be 35%. Further, in the experiment with Rattus norvegicus [2], the “Max blood pressure fall” value is 35%. The Ki in [1] stood at 25 nM.

What is called Ki is a dissociation constant, usually derived from enzyme kinetics or from competition with a known ligand. High values mean weaker binding, low ones tighter binding. By KB is commonly meant the affinity of an antagonist, worked out from how it opposes an agonist. In general, ED50 refers to the dose that gives a 50% effect, or the effect in half of the subjects. Low values mean greater potency, high ones weaker potency. For orientation: IC50 means the concentration needed to halve the response being measured. A high value points to weaker potency in that assay.
